Consider two compounds from article PMC12073189, “Synthesis and Evaluation of a Novel Zuranolone Analog with High GABAA Receptor PAM Activity and Excellent Pharmacokinetic Profiles” (Molecules, 2025).

The term IC50 denotes the concentration that gives 50% inhibition. As a reminder, the EC50 is the midpoint of the concentration-response curve. For orientation: Emax means the size of the effect at its maximum, as opposed to the concentration needed.

Like-named read-outs stand apart in the source and are kept apart here.

The target in one experiment is T1, CYP1A2 (Homo sapiens, UniProt P05177).
T1 construct: tissue XenoTech; host or cells: pooled human liver microsomes
T1 sequence (P05177 1-516): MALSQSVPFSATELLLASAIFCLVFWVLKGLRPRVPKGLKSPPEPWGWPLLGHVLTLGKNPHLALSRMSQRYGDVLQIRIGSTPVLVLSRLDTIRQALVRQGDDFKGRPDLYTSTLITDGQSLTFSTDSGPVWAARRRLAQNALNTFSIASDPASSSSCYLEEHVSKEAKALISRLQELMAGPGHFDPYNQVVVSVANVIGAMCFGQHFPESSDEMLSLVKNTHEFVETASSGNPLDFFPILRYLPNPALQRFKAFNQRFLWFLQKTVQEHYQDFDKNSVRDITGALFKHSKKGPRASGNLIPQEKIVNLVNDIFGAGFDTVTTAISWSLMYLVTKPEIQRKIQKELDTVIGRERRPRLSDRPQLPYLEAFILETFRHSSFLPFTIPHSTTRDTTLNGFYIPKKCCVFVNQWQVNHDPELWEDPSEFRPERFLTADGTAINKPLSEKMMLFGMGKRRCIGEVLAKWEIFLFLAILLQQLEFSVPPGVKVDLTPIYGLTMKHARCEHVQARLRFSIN
As to the kind of experiment: Human liver CYP inhibition assay (cocktail, pooled HLM). Type of experiment: in vitro ADME. The protocol: (§1) The main materials used in this experiment were sourced as follows: Zuranolone from BEIWANTABIO Co., Ltd. (Shanghai, China); liver microsomes (rat and human) and CYP isoenzymes (CYP1A2, CYP2C8, CYP2D6, CYP3A4) from XenoTech (Tewksbury, MA, USA); LTK cells from the China Center for Type Culture Collection (CCTCC, Wuhan, China); and CHO cells from the National Certified Cell Bank (Shanghai, China).
(§2) The IC50 values of S9 and Zuranolone on CYP isoenzymes (1A2, 2C8, 2D6, 3A4) were determined in pooled HLM using a cocktail approach, as previously reported.

The next experiment concerns the target T2, CYP2C8 (Homo sapiens, UniProt P10632).
T2 construct: tissue XenoTech; host or cells: pooled human liver microsomes
T2 sequence (P10632 1-490): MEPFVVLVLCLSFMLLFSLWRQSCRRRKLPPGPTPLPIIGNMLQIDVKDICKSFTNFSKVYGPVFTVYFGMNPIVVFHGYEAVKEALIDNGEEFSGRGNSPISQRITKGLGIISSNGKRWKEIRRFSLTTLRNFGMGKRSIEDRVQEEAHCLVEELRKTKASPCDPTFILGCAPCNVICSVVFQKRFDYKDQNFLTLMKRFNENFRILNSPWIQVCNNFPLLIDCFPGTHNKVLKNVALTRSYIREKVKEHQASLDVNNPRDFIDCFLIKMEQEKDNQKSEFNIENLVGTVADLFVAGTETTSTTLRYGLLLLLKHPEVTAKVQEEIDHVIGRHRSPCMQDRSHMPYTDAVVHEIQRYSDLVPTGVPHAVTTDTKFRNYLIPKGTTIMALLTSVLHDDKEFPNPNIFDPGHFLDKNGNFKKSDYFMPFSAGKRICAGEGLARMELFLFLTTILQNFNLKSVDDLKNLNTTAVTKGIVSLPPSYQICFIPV
Described as above. In kind it is in vitro ADME. Here is the method:
as §1, §2

In another experiment the target is T3, CYP2D6 (Homo sapiens, UniProt P10635).
T3 construct: tissue XenoTech; host or cells: pooled human liver microsomes
T3 sequence (P10635 whole entry): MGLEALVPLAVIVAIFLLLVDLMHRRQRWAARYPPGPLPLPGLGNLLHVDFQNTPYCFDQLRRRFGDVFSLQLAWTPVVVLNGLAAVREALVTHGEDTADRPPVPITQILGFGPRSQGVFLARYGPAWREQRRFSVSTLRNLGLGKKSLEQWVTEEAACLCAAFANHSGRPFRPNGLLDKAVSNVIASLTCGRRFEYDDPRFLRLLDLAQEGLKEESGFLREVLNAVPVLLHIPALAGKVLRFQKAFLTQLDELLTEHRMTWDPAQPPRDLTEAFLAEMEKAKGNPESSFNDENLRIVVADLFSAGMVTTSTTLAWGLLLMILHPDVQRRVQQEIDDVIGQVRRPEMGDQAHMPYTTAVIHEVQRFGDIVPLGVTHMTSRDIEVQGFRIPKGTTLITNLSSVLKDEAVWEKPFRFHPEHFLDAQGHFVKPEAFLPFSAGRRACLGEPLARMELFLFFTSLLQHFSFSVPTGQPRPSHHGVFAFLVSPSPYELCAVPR
The experiment is described as above. In kind it is in vitro ADME. The protocol: as §1, §2

Another experiment has as its target T4, CYP3A4 (Homo sapiens, UniProt P08684).
T4 construct: tissue XenoTech; host or cells: pooled human liver microsomes
The description is as above. Type of experiment: in vitro ADME. The protocol: as §1, §2

The target in another experiment is T5, α1β2γ2 GABAA receptor (Homo sapiens, UniProt P14867+P47870).
T5 construct: expressed in transfected cells
T5 sequence (P14867 28-456): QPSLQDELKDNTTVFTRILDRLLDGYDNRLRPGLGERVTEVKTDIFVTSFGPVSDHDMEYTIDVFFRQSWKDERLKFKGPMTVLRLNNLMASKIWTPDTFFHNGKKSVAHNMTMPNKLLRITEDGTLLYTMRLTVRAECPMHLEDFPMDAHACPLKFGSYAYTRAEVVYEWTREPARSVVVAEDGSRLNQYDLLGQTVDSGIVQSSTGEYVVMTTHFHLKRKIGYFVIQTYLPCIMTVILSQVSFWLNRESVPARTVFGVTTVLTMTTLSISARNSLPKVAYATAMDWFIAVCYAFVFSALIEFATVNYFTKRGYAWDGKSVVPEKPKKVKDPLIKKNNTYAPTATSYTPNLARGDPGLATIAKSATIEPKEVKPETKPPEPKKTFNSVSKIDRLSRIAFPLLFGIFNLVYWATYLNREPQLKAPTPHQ
T5 sequence (P47870 25-512 limits assumed): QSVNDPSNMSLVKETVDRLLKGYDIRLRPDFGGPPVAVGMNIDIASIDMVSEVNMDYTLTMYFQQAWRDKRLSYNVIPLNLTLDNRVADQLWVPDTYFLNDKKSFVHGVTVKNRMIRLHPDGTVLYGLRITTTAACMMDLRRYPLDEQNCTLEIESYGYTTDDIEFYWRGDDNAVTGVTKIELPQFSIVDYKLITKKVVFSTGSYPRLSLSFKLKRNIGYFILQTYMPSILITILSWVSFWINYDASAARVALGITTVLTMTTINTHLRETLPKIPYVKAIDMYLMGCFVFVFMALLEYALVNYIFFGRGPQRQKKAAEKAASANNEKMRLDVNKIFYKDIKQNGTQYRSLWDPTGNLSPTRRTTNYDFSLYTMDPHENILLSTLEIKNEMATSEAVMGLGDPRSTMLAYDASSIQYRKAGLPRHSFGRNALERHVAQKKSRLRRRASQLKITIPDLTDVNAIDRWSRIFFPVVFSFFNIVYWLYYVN
T5 sequence (P18507 40-475 partner): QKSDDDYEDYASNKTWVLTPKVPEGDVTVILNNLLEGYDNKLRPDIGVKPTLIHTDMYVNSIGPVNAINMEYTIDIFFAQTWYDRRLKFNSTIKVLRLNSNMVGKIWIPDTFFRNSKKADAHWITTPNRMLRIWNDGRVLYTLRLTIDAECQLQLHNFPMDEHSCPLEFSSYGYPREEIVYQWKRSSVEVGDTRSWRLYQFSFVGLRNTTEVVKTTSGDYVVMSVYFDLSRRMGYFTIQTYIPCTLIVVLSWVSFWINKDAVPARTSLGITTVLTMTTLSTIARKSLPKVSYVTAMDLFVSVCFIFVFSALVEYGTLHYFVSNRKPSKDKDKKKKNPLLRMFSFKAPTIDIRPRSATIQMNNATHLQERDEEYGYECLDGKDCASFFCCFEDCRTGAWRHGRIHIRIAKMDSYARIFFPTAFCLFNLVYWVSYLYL
Description: Whole-cell electrophysiology of GABA-evoked currents, LTK cells. In kind it is cell-based. As to conditions: for Emax: current induced by 1 μmol/L GABA = 100%. The protocol: The α1β2γ2 and α4β3δ GABAA receptor subtypes, representing synaptic and extrasynaptic subunit compositions in neurons, are widely utilized for screening new NAS drugs. In this study, a preliminary SAR study was conducted on a series of Zuranolone analogs using the LogP values predicted by ADMETlab3.0 software, recombinant human GABAA receptor cell lines, and in vitro liver microsome stability assays. The results are summarized in Table 1, Table 2, and Table 3, respectively.
The effects of Zuranolone and synthetic analogs on GABA-evoked currents were assessed in LTK cells stably expressing α1β2γ2 GABAA receptor subunits (n = 3) or CHO cells transiently expressing α4β3δ receptors (n = 3). Whole-cell mode recordings were conducted using the HEKA EPC-10 amplifier and analyzed with PatchMaster software (version 2x90, HEKA Elektronik, Lambrecht, Germany). High-throughput whole-cell recordings were performed using the Q-Patch method from Sophion. Test substances were dissolved in DMSO (dimethyl sulfoxide) to prepare 10 mmol/L stock solutions, then diluted with perfusion bath solution to concentrations ranging from 0.01 to 10 μmol/L. In this experiment, the effects of Zuranolone and its synthetic analogs on GABA-induced currents were examined in the presence of a submaximal agonist concentration at 1 μmol/L GABA (EC20). Cells were pre-incubated with increasing doses of test substances for 30 s, followed by 2 s of GABA stimulation, and currents were recorded. The maximum efficacy (Emax) of the GABAA receptor is expressed with the current induced by 1 μmol/L GABA taken as 100%, and the percentage after treatment with the test compound is calculated. The EC50 values are determined by fitting the three concentration–response curves recorded from three cells.

T4 sequence (P08684 whole entry): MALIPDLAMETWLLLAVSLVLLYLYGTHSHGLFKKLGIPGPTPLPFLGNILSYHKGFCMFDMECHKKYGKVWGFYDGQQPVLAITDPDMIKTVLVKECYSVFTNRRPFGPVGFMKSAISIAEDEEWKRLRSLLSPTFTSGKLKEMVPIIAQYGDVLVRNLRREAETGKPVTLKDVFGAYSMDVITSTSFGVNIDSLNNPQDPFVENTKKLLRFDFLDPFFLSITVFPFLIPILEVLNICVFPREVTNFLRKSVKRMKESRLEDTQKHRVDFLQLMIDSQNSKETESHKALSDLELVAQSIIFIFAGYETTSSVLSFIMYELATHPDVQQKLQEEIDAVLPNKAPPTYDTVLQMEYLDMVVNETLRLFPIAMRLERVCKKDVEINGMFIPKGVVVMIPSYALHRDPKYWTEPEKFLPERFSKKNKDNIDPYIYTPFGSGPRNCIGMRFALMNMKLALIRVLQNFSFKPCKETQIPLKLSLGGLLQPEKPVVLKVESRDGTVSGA

As to `C[C@@]1(O)CC[C@H]2[C@H](CC[C@@H]3[C@@H]2CC[C@]2(C)[C@@H](C(=O)Cn4cnn(-c5ccnc(OCC(F)(F)F)c5)c4=O)CC[C@@H]32)C1` [S9], the IC50 at CYP1A2 (human liver CYP isoenzymes, pooled HLM, read-out: CYP IC50: 1A2) is over 30 µM; at CYP2C8 (human liver CYP isoenzymes, pooled HLM, read-out: CYP IC50: 2C8) it was over 30 µM; at CYP2D6 (human liver CYP isoenzymes, pooled HLM, read-out: CYP IC50: 2D6) it was over 30 µM; at CYP3A4 (human liver CYP isoenzymes, pooled HLM, read-out: CYP IC50: 3A4), over 30 µM. The EC50 at α1β2γ2 GABAA receptor (LTK cells, 1 μmol/L GABA (EC20), n = 3, read-out: α1β2γ2 EC50) turned out to be 50 ± 10 nM. This compound also yielded an Emax at α1β2γ2 GABAA receptor (LTK cells, n = 3) of 675 ± 163%. For the same compound, at α1β2γ2 GABAA receptor (S28 previously reported ref 25), the “enhanced GABAA receptor potency compared to S28” value was “over 1 fold”. For the same compound, the “efficacy as % of that of Zuranolone” value at α1β2γ2 GABAA receptor (synaptic GABAA receptors) was 76%; at α1β2γ2 GABAA receptor (synaptic and extrasynaptic GABAA receptors, not separated), “approximately 75%”. Moreover, the “potency as % of that of Zuranolone” value at α1β2γ2 GABAA receptor (synaptic GABAA receptors) worked out at 250%.

As for `C[C@@]1(O)CC[C@H]2[C@H](CC[C@@H]3[C@@H]2CC[C@]2(C)[C@@H](C(=O)Cn4cc(C#N)cn4)CC[C@@H]32)C1` [Zuranolone], the IC50 on CYP1A2, at CYP2C8, at CYP2D6 and against CYP3A4 was over 30 µM each time. Besides, the midpoint of the response at α1β2γ2 GABAA receptor, the EC50, lay at 123 ± 20 nM. This compound displayed an Emax on α1β2γ2 GABAA receptor (LTK cells, n = 3) of 894 ± 40%.
